This is an account of results in US20110207751A1, “HETEROCYCLIC COMPOUNDS AND USES AS ANTICANCER AGENTS” (priority 2010, published 2011).

This assay has as its system MDA-MB-231 cells (human breast cancer cell line). Briefly: Inhibition of cell proliferation, xCelligence cell index. It counts as cell-based. Particulars: 72 hr post compound treatment, read-out: calculated IC50. An excerpt: The biological activity of compounds disclosed herein was monitored and profiled using the Real-Time Cell Electronic Sensing (RT-CES®) system from ACEA Biosciences, Inc. The RT-CES system utilizes cell-substrate impedance technology to monitor cellular behavior inside tissue culture wells in a microtiter plate format. The technology features in the integration of molecular and cell biology with microelectronics and is based on the electronic detection of biological assay process. […]
For measurement of cell-substrate or cell-electrode impedance using RT-CES technology, microelectrodes having appropriate geometries are fabricated onto the bottom surfaces of microtiter plate or similar device, facing into the wells. […] When there are changes to the biological status of the cells analogue electronic readout signals are measured automatically and in real time, and are converted to digital signals for processing and for analysis. In a RT-CES system, a cell index (arbitrary representation of change in impedance) is automatically derived and provided based on measured electrode impedance values. […]
To quantify cell status based on the measured cell-electrode impedance, a parameter termed Cell Index is derived. Cell Index is a quantitative measure of the status of the cells in an electrode-containing well. […]

Counter-ions that a name gives are not always drawn.

What is called IC50 is the point on the concentration scale where inhibition reaches its midpoint. Turning to `CCc1ccc(Nc2nc(-c3c(C)nc4sccn34)cs2)cc1` [COMPOUND O, 2-(4-ethylphenyl)amino-4-(6-methylimidazo[2,1-b]thiazol-5-yl)-thiazole monohydrobromide], the IC50 is 32.4 nM.
